Values joined by “and” are separate entries in the source; they are usually repeats but may differ in a detail not shown here. Equal entries are not always repeated.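 Dose response: 5 concentrations. Exposure: 48 h. Format: 96-well plates. Endpoint: linear interpolation; highest concentration if not reached. The concentration for 50% growth inhibition is given as GI50. At the TGI there is no net growth.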
Tests used:
Experiment in all cases: growth of human tumour cells (NCI), 48 h
[1] = test system: HS 578T breast
[2] = test system: NCI-H226 lung
[3] = test system: SF-295 CNS
[4] = test system: SF-539 CNS
[5] = test system: SN12C renal
[6] = test system: SNB-19 CNS
[7] = test system: ACHN renal
[8] = test system: EKVX NSCLC
[9] = test system: MALME-3M melanoma
[10] = test system: SNB-75 CNS

Row | SMILES | GI50 [1] [µM] | TGI [1] [µM] | GI50 [2] [µM] | TGI [2] [µM] | GI50 [3] [µM] | TGI [3] [µM] | GI50 [4] [µM] | TGI [4] [µM] | GI50 [5] [µM] | TGI [5] [µM] | GI50 [6] [µM] | TGI [6] [µM] | TGI [7] [µM] | TGI [8] [µM] | TGI [9] [µM] | TGI [10] | GI50 [7] | GI50 [8] | GI50 [9] [µM] | GI50 [10] [µM]
1 | COc1cc(/C=C2\C[C@H]3[C@@H]4CC=C5C[C@@H](OC(C)=O)CC[C@]5(C)[C@H]4CC[C@]3(C)[C@H]2OC(C)=O)ccc1OCCN1CCCC1 | 9.32 | 18.8 | 9.67 | 18.6 | 12.6 | 25.4 | 8.7 | 17.3 | 7.79 | 15.7 | 10.9 | 22.5 | – | – | – | – | – | – | – | –
2 | C=C(CCCO)[C@@H]1CC[C@@](C)(O)[C@H]1C | – | – | – | > 100 | – | > 100 | – | > 100 | – | > 100 | – | > 100 | > 100 | > 100 | > 100 | > 100 µM | – | – | – | –
3 | COc1ccc(/C=C2\c3cc(OC)c(OC)c(OC)c3CC[C@@H]2O)cc1F | 0.299 | > 100 | – | – | 0.222 | > 100 | 0.272 | 0.917 | 0.949 | > 100 | 0.855 | > 100 | > 100 | > 100 | > 100 | – | 0.815 µM | 0.823 µM | 0.261 | –
4 | CCOC1CC2OC(=O)C1C=C2C(=O)OC (configuration not stated) | – | – | – | > 100 | – | > 100 | – | 68.4 | – | – | – | > 100 | > 100 | > 100 | 38.5 | – | – | – | – | –
5 | CSCCC(C(=O)O)N(CC1(O)OCC(O)C(O)C1O)N=O (configuration not stated) | – | – | – | – | – | – | – | > 100 | – | – | – | – | > 100 | > 100 | > 100 | > 100 µM | – | – | – | –
6 | C[Si](C)(C)C(Sc1ccccc1)(Sc1ccccc1)Sc1ccccc1 | – | – | – | – | – | > 100 | – | > 100 | – | > 100 | – | > 100 | > 100 | > 100 | – | > 100 µM | – | – | – | –
7 | CCOC(=O)C(C(O)c1ccc([N+](=O)[O-])cc1)P(=O)(OCC)OCC (configuration not stated) | – | – | – | > 100 | – | > 100 | – | > 100 | – | > 100 | – | > 100 | > 100 | > 100 | > 100 | > 100 µM | – | – | – | –
8 | CC1C2CC=CC(=O)[C@@]2(C)CCC12OCCO2 (some centres not stated) | – | – | – | > 100 | – | > 100 | – | > 100 | – | > 100 | – | > 100 | > 100 | > 100 | > 100 | > 100 µM | – | – | – | –
9 | COc1c2c(cc3c1C(=O)Cc1ccc4c(c1CN(C)CC3)OCO4)OCO2 | – | – | – | > 100 | – | > 100 | – | > 100 | – | > 100 | – | > 100 | > 100 | > 100 | > 100 | > 100 µM | – | – | – | –
10 | Cn1cnc([N+](=O)[O-])c1Sc1nccc(=O)[nH]1 | – | – | – | > 100 | – | > 100 | – | > 100 | – | > 100 | – | > 100 | > 100 | > 100 | > 100 | > 100 µM | – | – | – | –
11 | COCCn1cc(-c2csc(-c3c[nH]c4ccc(Br)cc34)n2)c2cccnc21 | 4.44 | 43 | – | – | 2.83 | > 100 | 7.34 | > 100 | 7.72 | > 100 | 12.2 | > 100 | > 100 | > 100 | 57.6 | 29.4 µM | 3.04 µM | 2.05 µM | 3.66 | 4.72
12 | C/C(=N\NC(=O)CC(=O)N(C(=O)c1ccc(Cl)cc1)c1ccc(C)cc1)c1ccccc1O | – | – | – | > 100 | – | > 100 | – | > 100 | – | > 100 | – | > 100 | > 100 | > 100 | > 100 | 43.9 µM | – | – | – | –
13 | CCOC(=O)CNc1nnnn1C1OC(CO)C(O)C1O (configuration not stated) | – | – | – | > 100 | – | > 100 | – | > 100 | – | > 100 | – | – | > 100 | > 100 | > 100 | > 100 µM | – | – | – | –
14 | CC1CC[P+](c2ccccc2)(c2ccccc2)CC1 | – | – | – | > 100 | – | > 100 | – | > 100 | – | > 100 | – | > 100 | > 100 | > 100 | > 100 | > 100 µM | – | – | – | –
15 | C=CCN(N=O)C(=O)NCCCCC(NC(C)=O)C(=O)NCc1ccccc1 (configuration not stated) | – | – | – | > 100 | – | > 100 | – | > 100 | – | > 100 | – | > 100 | > 100 | > 100 | > 100 | > 100 µM | – | – | – | –
16 | O=c1cc(-c2ccccc2)[nH]c2cc(Cl)ccc12 | – | – | – | 56 | – | 2.07 | – | 1.99 | – | 82.3 | – | 6.44 | 31 | > 100 | > 100 | 6.07 µM | – | – | – | –
17 | [CH3][Sn]([CH3])([CH3])[O][N+](=O)[O-] | 1.73 | > 10 | 3.5 | 7.39 | 9.92 | > 10 | 2.48 | 9.58 | 1.78 | 4.11 | > 10 | > 10 | > 10 | > 10 | – | > 10 µM | > 10 µM | > 10 µM | – | > 10
18 | COc1cc(/C=C2/C(=O)N(C(=O)OCc3ccccc3)C(Cc3cc(OC)c(OC)c(C)c3OC)C(=O)N2Cc2ccccc2)c(OC)c(C)c1OC (configuration not stated) | – | – | – | 12.6 | – | > 100 | – | > 100 | – | > 100 | – | > 100 | > 100 | > 100 | > 100 | > 100 µM | – | – | – | –
19 | COC(=O)C(=O)C(C(=O)C(=O)Nc1cc(C)ccc1C)c1nc2ccc(C(=O)c3ccccc3)cc2[nH]c1=O (configuration not stated) | – | – | – | > 100 | – | > 100 | – | > 100 | – | > 100 | – | > 100 | > 100 | > 100 | > 100 | – | – | – | – | –
20 | CCN=C(C#N)NCC | – | – | – | > 100 | – | > 100 | – | > 100 | – | > 100 | – | > 100 | > 100 | > 100 | > 100 | > 100 µM | – | – | – | –
21 | COc1ccc(CCc2cc(OC)c(O)c(OC)c2)cc1 | – | – | – | > 100 | – | – | – | > 100 | – | > 100 | – | > 100 | > 100 | > 100 | > 100 | > 100 µM | – | – | – | –
22 | CCCCCCCCCCCCCB(O)O | – | – | – | > 100 | – | > 100 | – | > 100 | – | > 100 | – | > 100 | > 100 | > 100 | > 100 | > 100 µM and 37.6 µM | > 100 µM and 45.4 µM | > 100 µM and 45.5 µM | – | –
